In PMC10589655 (Proceedings of the National Academy of Sciences of the …, 2023):
Where two headings read alike, the source gives them in different places.

Columns and labels:
R5 = molecular target: T1, R5 (Williamwhitmania taraxaci, UniProt A0A1G6J2J7); assay: ITC; format: binding
T1 sequence (A0A1G6J2J7 34-316 limits assumed): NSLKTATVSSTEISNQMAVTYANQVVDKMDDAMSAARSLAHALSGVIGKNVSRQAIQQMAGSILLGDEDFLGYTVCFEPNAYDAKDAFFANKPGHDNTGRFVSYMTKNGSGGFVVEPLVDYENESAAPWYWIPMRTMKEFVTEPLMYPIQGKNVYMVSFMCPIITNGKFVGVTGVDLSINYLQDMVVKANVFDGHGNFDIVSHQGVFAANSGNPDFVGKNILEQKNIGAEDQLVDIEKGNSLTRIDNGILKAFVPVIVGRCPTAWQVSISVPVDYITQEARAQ

R8 = molecular target: T2, R8 (Azospirillum baldaniorum, UniProt A0A9P1JTZ6); assay: ITC; conditions: one binding site model
T2 sequence (A0A9P1JTZ6 19-310): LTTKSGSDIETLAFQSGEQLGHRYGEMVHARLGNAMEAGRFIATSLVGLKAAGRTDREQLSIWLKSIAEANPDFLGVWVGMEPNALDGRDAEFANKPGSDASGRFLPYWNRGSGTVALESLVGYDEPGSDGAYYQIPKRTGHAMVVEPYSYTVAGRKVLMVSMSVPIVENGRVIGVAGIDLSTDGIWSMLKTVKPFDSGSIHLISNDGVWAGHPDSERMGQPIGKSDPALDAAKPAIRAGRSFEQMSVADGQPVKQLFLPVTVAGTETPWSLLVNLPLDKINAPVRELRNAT

R7 = molecular target: T3, R7 (Peptoclostridium litorale, UniProt A0A069RI07); assay: ITC; format: binding
T3 sequence (A0A069RI07 38-318 limits assumed): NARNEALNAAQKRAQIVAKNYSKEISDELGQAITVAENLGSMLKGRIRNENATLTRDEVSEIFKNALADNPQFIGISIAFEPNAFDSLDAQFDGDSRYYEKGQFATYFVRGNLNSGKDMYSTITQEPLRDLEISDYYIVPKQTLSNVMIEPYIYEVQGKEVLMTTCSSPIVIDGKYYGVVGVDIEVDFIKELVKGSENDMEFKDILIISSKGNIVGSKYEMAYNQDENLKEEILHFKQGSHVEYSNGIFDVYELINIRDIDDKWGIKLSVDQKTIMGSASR

R1 = molecular target: T4, R1 (Methanosarcina mazei, UniProt Q8PSW1); assay: ITC; format: binding
T4 sequence (Q8PSW1 32-312): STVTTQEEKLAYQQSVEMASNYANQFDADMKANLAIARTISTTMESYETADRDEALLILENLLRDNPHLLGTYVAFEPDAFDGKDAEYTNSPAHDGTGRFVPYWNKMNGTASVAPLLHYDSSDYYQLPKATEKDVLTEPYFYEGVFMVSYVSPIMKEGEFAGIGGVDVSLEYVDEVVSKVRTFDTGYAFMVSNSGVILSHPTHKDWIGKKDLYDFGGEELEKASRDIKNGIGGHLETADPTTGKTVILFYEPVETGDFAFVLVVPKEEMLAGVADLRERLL

R3 = assay: ITC; parameters: species or system Desulfovibrio inopinatus; conditions: read-out: KD (uM) / Polyamine / Ethylenediamine; one binding site model
PacA-LBD = PacA-LBD (Pectobacterium atrosepticum, UniProt Q6D515); assay: biochemical
R6 = R6 (Oleiharenicola lentus, UniProt A0A4Q1C8G9); assay: biochemical
Sequence of R6 (A0A4Q1C8G9 35-324 limits assumed): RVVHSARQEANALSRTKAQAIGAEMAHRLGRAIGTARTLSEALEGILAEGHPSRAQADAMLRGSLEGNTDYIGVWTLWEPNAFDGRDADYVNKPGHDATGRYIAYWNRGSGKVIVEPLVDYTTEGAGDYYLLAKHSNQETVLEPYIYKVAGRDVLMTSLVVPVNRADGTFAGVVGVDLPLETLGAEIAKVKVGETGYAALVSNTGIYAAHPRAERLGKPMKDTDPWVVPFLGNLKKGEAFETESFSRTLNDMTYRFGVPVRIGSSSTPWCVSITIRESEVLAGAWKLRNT

Sequence of PacA-LBD (Q6D515 1-271): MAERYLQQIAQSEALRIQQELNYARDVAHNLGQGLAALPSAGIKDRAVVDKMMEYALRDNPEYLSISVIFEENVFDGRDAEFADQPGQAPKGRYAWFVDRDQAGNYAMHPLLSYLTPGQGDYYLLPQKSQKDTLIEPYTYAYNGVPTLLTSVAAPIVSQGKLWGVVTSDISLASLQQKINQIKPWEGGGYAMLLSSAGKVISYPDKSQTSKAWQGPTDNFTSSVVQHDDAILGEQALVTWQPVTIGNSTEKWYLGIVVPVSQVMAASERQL

SMILES	Kd (R5)	Kd (R7)	Kd (R1)	also measured
C[N+](C)(C)CCO [Choline]	3.6 ± 0.1 µM			Kd (R8; read-out: KD (uM) / Quaternary amines / Choline): 183 ± 4 µM
CNC [Dimethylamine]		5.3 ± 0.4 µM	0.53 ± 0.02 µM	Kd (R8; read-out: KD (uM) / Methyl-/ethyl-/ethanol amines^* / Dimethylamine): 5.8 ± 1 µM
NCCN [Ethylenediamine]		12.3 ± 1 µM		Kd (R3): 29.6 ± 3 µM
CN [Methylamine]		16.6 ± 2 µM	35.1 ± 3 µM	Kd (R8; read-out: KD (uM) / Methyl-/ethyl-/ethanol amines^* / Methylamine): 25.1 ± 3 µM
CN(C)C [Trimethylamine]	1.2 ± 0.1 µM		10 ± 0.4 µM	Kd (PacA-LBD): 113 ± 6 µM; Kd (R6): 151 ± 4 µM; Kd (R8; read-out: KD (uM) / Methyl-/ethyl-/ethanol amines^* / Trimethylamine): 24 ± 4 µM
